The record followed here is patent US9394555B2, “Compositions comprising a polypeptide having cellulolytic enhancing activity and a dioxy compound and uses thereof” (priority 2010, dated 2016).

The target in the assay is T. aurantiacus GH61A polypeptide (Thermoascus aurantiacus, UniProt G3XAP7, N13Y). In kind it is biochemical. To be noted: for dioxy compound effect(no GH61) (Equation 3), ratio of percent conversion with/without dioxy compound: day 1 to day 8; for hydrolysis of AVICEL in the presence of both T. aurantiacus GH61A polypeptide and dioxy compound relative to inhibition by the dioxy compound / dioxy compound effect(no GH61): dioxy compound 1 mM; for hydrolysis of AVICEL in the presence of both T. aurantiacus GH61A polypeptide and dioxy compound relative to inhibition by the dioxy compound: GH61A polypeptide 2 mg per g cellulose, cellulose 29.5 mg per ml; for dioxy compound effect(no GH61): AVICEL 29.5 mg cellulose per ml. As for the experimental part:
The cellulase preparation is designated herein as “Trichoderma reesei cellulase composition” unless specified otherwise.
Later experiments were mixed thoroughly prior to incubation in an IsoTemp incubator (Fisher Scientific, Hampton, N.H., USA) and prior to sampling for analysis, but were not continuously mixed.
Data were processed using MICROSOFT EXCEL™ software.

[1] abbreviates: AVICEL, T. reesei cellulase composition, dioxy compound 5 mM, T. aurantiacus GH61A polypeptide present, day 1.
Setting [2] is: AVICEL, T. reesei cellulase composition, dioxy compound 5 mM, T. aurantiacus GH61A polypeptide present, day 5.
Setting [3] is: AVICEL, T. reesei cellulase composition, dioxy compound 5 mM, T. aurantiacus GH61A polypeptide present, day 8.
Setting [4] is: AVICEL, T. reesei cellulase composition, dioxy compound 5 mM.
Where [5] appears, read: AVICEL, T. reesei cellulase composition, dioxy compound 5 mM, day 5 (Example 24).
The mark [6] stands for this setting: AVICEL 14 mg cellulose per ml, dioxy compound 5 mM, T. aurantiacus GH61A polypeptide 0.4 mg per g cellulose, 1, 3, and 7 days.

SMILES strings stand for the structures. Like-named read-outs stand apart in the source and are kept apart here.

Sequence of T. aurantiacus GH61A polypeptide (G3XAP7 whole entry N13Y): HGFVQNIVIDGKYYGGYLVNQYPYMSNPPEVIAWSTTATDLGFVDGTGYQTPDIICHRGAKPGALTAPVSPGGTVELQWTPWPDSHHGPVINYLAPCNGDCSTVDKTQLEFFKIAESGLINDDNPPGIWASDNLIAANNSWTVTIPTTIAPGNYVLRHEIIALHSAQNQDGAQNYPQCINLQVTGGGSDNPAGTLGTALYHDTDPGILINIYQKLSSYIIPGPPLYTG

`Oc1ccc(Cl)cc1O` [4-chloro-1,2-benzenediol]: the “dioxy compound effect(+GH61) (Equation 4)” value (“dioxy compound effect(+GH61)” below) reads like this: under setting [1], “increased”; under setting [2], “less than 1”; under setting [3], “less than 1”. Further, the “dioxy compound effect(no GH61) (Equation 3), ratio of percent conversion with/without dioxy compound” value under setting [4] is listed as “less than 1”. For the same compound, the “GH61 effect (Equation 5), ratio of percent conversion with/without GH61 polypeptide” value (AVICEL, T. reesei cellulase composition, dioxy compound 5 mM, day 1 (Example 24)) is given as “greater than 1”. Under setting [5], the “GH61 effect (Equation 5)” value was “greater than 1”.
Regarding `O=[N+]([O-])c1ccc(O)c(O)c1` [4-nitro-1,2-benzenediol], the “dioxy compound effect(+GH61)” value reads like this: under setting [1], “less than 1”; under setting [2], “less than 1”; under setting [3], “less than 1”. Further, the “dioxy compound effect(no GH61) (Equation 3), ratio of percent conversion with/without dioxy compound” value under setting [4] is “less than 1”. In addition, the “GH61 effect (Equation 5)” value by setting is: under setting [5], “greater than 1”; (AVICEL, T. reesei cellulase composition, dioxy compound 5 mM, day 8 (Example 24)) “greater than 1”.
Regarding `COc1cccc(OC)c1O` [2,6-dimethoxyphenol], the “hydrolysis of AVICEL in the presence of both T. aurantiacus GH61A polypeptide and dioxy compound relative to inhibition by the dioxy compound” value is “overall enhancement of cellulolysis”.
Turning to `COC(=O)c1ccc(O)cc1` [methyl-4-hydroxybenzoate], the “hydrolysis of AVICEL in the presence of both T. aurantiacus GH61A polypeptide and dioxy compound relative to inhibition by the dioxy compound” value is listed as “overall enhancement of cellulolysis”.
As to `CC(O)CC(C)O` (stereo not drawn) [2,4-pentanediol], under setting [6], the “dioxy compound effect(+GH61)” value was “greater than 1”. The “GH61 effect (Equation 5)” value (AVICEL 14 mg cellulose per ml, dioxy compound 5 mM, T. aurantiacus GH61A polypeptide 0.4 mg per g cellulose, later hydrolysis stages (day 7)) is given as “greater than 1”. The “dioxy compound effect(no GH61) (Equation 3)” value (AVICEL 14 mg cellulose per ml, dioxy compound 5 mM, day 1) was “greater than 1”.
For `OCCCO` [1,3-propanediol], under setting [6], the “dioxy compound effect(+GH61)” value is given as “greater than 1”. Further, the “GH61 effect (Equation 5)” value (AVICEL 14 mg cellulose per ml, dioxy compound 5 mM, T. aurantiacus GH61A polypeptide 0.4 mg per g cellulose, 1, 3, and 7 days, increasing as hydrolysis progressed) is listed as “greater than 1”. Further, the “dioxy compound effect(no GH61) (Equation 3)” value (AVICEL 14 mg cellulose per ml, dioxy compound 5 mM, 1, 3, and 7 days, especially early stages) was “greater than 1”.
Take `O=C(O)C(O)C(O)C(=O)O` (stereo not drawn) [tartrate, tartaric acid]: the “dioxy compound effect(no GH61)” value by setting is: (3 days) 0.984±0.00843; (7 days) 1.02±0.0573.
As for `CCOCC(O)CO` (stereo not drawn) [3-ethoxy-1,2-propanediol, 3-ethyoxy-1,2-propanediol], the “dioxy compound effect(no GH61)” value (3 days) is 1.11±0.0167 and the “dioxy compound effect(no GH61)” value (7 days) turned out to be 1.20±0.0210.
